Test results from patent US20230310428A1, “EGFR INHIBITOR AND PREPARATION METHOD AND USE THEREOF” (HONGYUN BIOTECH CO., LTD., priority 2020, published 2023).

How the values were obtained:
Test in all cases: Growth inhibitory activity of compounds on BaF3 cell lines stably transfected with kinase (MTS, 48 h)
Assay type in all cases: cell-based
[1] = target: T1, various mutants of kinase EGFR (BaF3 cell lines stably transfected with kinase) (Homo sapiens, UniProt P00533); settings: BaF3 cells stably transfected with EGFR Δ19Del, read-out: IC50, growth inhibition, Δ19Del
T1 construct: other: BaF3 cells stably transfected with EGFR Δ19Del; MTS, 48 h; other: BaF3 cell line stably transfected with EGFR Δ19Del
Method: (§1) The activity of compounds against various mutants of kinase EGFR was evaluated by their effect of inhibiting growth of BaF3 cell lines stably transfected with kinase. The specific test method was given as follows:
(§2) 1) Culture medium: DMEM (Dulbecco’s modified eagle medium) or RPMI 1640 (containing 10% fetal bovine serum, 100 µg/mL ampicillin, 100 µg/mL streptomycin).
(§3) 2) Reagent: MTS reaction solution (containing 2 mg/mL of MTS [3-(4,5-dimethylthiazol-2-yl)-5-(3-carboxymethoxyphenyl)-2-(4-sulfophenyl)-2H-tetrazoliu m, inner Salt]; 100 µg/mL of PES ([…])).
(§4) 3) Compound test: cells were incubated into a 96-well culture plate, the volume of cytosol was 90 µL, and then 10 µL of the compound at each gradient concentration was added. That is, the highest concentration was 10 µM, which was diluted stepwise by ⅓, and 8 concentration points were set in total; 0.1% DMSO (dimethyl sulfoxide) was contained in the system. The cell plate with uniformly mixed compound was cultured in a cell culture incubator (37° C.; 5% CO2) for 48 h, then 20 µL of MTS reaction solution was added, uniformly mixed and incubated in the cell culture incubator (37° C.; 5% CO2) for 1-4 h. OD values at 490 nm were measured by a microplate reader (VARIOSKAN FLASH, Thermo). Two parallels were set in each group of experiments, with 0.1% (a final concentration) DMSO as a negative control, and a culture medium without cells and compounds as a blank control. The cell growth inhibition rate was calculated by the following formula: […]
(§5) 4) IC50 calculation: The semi-inhibitory concentration of the compounds acting on cells was calculated using GradPad Prism 5 software according to the measured cell growth inhibition rate.

[2] = target: T2, various mutants of kinase EGFR (BaF3 cell lines stably transfected with kinase) (Homo sapiens, UniProt P00533, C797S/L858R/T790M); settings: BaF3 cells stably transfected with EGFR L858R/T790M/C797S, read-out: IC50, growth inhibition, L858R/T790M/C797S
T2 construct: expressed in transfected cells; host or cells: BaF3
T2 sequence (P00533 25-1210 T790M/C797S/L858R): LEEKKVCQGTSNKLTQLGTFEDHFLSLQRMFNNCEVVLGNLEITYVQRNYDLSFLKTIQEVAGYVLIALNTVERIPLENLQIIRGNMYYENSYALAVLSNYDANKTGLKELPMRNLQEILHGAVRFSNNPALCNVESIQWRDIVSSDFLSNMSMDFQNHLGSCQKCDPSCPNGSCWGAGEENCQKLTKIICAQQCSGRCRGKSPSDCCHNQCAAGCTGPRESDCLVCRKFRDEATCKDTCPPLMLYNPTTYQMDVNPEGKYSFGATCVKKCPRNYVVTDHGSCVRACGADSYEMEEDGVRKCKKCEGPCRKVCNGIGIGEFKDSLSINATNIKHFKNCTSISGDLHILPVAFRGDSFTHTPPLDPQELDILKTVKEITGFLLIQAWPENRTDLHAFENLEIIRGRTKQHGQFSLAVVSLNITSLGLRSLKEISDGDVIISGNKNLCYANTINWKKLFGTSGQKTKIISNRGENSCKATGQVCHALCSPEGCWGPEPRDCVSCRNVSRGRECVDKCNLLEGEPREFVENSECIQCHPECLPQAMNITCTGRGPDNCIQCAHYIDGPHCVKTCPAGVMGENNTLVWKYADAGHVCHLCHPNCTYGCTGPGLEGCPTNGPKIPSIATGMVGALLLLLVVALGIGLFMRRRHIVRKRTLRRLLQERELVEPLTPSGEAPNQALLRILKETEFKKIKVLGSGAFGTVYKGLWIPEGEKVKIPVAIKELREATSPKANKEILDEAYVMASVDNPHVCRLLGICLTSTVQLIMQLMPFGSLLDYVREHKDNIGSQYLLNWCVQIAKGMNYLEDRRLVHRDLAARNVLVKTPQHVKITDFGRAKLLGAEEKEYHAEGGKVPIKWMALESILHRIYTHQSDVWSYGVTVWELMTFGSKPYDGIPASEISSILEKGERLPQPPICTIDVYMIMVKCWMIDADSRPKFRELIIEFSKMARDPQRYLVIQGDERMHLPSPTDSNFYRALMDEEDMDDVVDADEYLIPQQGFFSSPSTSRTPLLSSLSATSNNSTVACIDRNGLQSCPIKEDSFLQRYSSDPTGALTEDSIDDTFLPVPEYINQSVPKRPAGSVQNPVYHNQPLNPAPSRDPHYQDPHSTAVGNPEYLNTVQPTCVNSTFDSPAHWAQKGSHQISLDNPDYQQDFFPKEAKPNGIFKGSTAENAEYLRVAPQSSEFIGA
Method: as §1, §2, §3, §4, §5

[3] = target: T3, various mutants of kinase EGFR (BaF3 cell lines stably transfected with kinase) (Homo sapiens, UniProt P00533, T790M, form not given); settings: BaF3 cells stably transfected with EGFR Δ19Del/T790M, read-out: IC50, growth inhibition, Δ19Del/T790M
T3 construct: other: BaF3 cells stably transfected with EGFR Δ19Del/T790M; MTS, 48 h; other: BaF3 cell line stably transfected with EGFR Δ19Del/T790M; MTS, 48
Method: as §1, §2, §3, §4, §5

[4] = target: T4, various mutants of kinase EGFR (BaF3 cell lines stably transfected with kinase) (Homo sapiens, UniProt P00533, L858R); settings: BaF3 cells stably transfected with EGFR L858R, read-out: IC50, growth inhibition, L858R
T4 construct: expressed in transfected cells; host or cells: BaF3
T4 sequence (P00533 25-1210 L858R): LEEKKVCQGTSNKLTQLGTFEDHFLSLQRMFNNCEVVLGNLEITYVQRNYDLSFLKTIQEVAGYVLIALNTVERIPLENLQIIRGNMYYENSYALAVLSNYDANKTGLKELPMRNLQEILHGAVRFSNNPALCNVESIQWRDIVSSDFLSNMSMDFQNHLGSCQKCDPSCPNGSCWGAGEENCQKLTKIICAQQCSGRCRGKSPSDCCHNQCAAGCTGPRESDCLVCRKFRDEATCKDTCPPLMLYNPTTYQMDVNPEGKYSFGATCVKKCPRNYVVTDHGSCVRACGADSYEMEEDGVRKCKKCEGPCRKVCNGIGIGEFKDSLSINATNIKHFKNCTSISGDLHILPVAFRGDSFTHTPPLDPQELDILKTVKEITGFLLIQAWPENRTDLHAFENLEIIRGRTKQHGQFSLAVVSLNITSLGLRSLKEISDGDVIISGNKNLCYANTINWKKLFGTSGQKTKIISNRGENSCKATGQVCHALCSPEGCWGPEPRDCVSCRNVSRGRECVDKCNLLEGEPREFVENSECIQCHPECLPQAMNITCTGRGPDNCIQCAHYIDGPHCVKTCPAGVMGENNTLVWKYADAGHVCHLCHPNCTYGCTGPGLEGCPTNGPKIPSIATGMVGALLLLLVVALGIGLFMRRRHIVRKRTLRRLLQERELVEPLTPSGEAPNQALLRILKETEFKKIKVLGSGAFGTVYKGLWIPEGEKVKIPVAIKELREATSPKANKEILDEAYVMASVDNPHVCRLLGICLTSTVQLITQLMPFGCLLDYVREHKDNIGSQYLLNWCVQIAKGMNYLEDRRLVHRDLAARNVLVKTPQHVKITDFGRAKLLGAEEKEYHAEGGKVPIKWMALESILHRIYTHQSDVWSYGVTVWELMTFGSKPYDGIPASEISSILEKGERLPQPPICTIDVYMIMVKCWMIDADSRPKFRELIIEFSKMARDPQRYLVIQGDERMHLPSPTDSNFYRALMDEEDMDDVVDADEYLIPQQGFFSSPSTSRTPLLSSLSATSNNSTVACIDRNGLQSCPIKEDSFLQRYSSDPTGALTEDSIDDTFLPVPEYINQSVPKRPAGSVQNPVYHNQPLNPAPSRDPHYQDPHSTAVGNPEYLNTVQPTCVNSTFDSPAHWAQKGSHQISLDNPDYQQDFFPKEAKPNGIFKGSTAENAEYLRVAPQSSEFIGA
Method: as §1, §2, §3, §4, §5

[5] = target: T5, various mutants of kinase EGFR (BaF3 cell lines stably transfected with kinase) (Homo sapiens, UniProt P00533, T790M/C797S, form not given); settings: BaF3 cells stably transfected with EGFR Δ19Del/T790M/C797S, read-out: IC50, growth inhibition, Δ19Del/T790M/C797S
T5 construct: other: BaF3 cells stably transfected with EGFR Δ19Del/T790M/C797S; MTS, 48; other: BaF3 cell line stably transfected with EGFR Δ19Del/T790M/C7
T5 sequence (P00533 with tags, fused parts or gaps DEL746-750/T790M/C797S, form open): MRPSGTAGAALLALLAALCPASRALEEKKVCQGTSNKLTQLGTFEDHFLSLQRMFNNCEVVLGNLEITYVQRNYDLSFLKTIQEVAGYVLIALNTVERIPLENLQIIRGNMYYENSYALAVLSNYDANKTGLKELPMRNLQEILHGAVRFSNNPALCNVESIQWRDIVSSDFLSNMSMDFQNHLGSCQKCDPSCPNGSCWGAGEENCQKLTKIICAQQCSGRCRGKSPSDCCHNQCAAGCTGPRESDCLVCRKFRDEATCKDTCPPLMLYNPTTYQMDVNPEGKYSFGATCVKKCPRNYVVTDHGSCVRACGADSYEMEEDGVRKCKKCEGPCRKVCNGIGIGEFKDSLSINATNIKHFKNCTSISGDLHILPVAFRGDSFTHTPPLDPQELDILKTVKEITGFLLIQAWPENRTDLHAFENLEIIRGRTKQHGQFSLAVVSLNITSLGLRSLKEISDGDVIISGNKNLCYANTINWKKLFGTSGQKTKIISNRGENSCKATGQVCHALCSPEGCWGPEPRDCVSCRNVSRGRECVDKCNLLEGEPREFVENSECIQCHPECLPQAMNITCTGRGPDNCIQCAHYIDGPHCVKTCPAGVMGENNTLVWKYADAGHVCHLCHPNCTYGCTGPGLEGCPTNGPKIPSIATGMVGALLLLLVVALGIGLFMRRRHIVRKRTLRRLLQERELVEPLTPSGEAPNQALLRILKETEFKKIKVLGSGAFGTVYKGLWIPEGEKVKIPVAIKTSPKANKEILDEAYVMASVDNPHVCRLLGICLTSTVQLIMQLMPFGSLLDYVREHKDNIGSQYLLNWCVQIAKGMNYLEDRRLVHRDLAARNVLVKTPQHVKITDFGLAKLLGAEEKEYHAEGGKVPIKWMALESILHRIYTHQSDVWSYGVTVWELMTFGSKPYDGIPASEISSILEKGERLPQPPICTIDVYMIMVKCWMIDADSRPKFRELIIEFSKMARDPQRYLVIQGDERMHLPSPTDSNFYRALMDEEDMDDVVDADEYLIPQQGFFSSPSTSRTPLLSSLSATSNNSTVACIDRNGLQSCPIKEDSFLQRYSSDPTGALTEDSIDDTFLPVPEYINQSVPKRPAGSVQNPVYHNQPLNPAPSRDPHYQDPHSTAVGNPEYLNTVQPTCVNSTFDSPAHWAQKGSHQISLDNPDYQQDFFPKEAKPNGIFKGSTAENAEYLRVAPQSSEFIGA
Method: as §1, §2, §3, §4, §5

[6] = target: T6, various mutants of kinase EGFR (BaF3 cell lines stably transfected with kinase) (Homo sapiens, UniProt P00533, L858R/T790M); settings: BaF3 cells stably transfected with EGFR L858R/T790M, read-out: IC50, growth inhibition, L858R/T790M
T6 construct: expressed in transfected cells; host or cells: BaF3
T6 sequence (P00533 25-1210 T790M/L858R): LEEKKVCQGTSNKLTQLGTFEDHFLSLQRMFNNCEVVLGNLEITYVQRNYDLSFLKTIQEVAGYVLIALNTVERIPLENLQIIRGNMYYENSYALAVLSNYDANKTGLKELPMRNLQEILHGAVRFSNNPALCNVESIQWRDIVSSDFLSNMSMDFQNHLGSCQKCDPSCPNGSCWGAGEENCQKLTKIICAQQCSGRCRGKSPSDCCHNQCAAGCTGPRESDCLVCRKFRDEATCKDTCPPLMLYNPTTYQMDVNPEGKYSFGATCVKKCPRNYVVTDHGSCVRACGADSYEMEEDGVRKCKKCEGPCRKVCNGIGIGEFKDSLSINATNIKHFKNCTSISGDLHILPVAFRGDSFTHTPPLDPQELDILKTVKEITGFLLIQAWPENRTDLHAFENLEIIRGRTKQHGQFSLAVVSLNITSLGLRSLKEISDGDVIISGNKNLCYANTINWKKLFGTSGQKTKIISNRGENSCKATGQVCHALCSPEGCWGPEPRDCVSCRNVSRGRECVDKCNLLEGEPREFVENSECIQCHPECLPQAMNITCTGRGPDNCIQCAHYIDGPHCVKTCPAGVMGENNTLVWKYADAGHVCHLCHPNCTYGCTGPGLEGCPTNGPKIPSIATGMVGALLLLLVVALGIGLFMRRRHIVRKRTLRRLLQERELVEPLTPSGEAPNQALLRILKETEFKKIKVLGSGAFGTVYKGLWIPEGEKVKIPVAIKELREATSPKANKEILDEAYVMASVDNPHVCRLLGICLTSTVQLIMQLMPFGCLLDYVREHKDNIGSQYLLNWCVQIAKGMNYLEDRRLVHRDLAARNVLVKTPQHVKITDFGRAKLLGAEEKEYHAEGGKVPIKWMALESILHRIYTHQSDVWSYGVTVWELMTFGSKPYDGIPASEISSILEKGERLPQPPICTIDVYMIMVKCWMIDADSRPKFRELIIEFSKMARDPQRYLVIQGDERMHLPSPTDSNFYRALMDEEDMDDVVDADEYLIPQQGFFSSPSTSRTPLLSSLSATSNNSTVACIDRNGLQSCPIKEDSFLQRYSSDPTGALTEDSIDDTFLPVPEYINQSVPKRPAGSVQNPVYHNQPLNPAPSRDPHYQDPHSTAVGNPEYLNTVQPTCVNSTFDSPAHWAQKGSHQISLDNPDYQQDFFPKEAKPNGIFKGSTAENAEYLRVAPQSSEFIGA
Method: as §1, §2, §3, §4, §5

An IC50 [1] of 50 to 500 nM, an IC50 [2] of no more than 50 nM and an IC50 [3] of no more than 50 nM were found for `CCc1cc(Nc2ncc(Cl)c(Nc3ccc4nccnc4c3N(CC)S(C)(=O)=O)n2)c(OC)cc1N1CCC(N(C)C)C1` (stereo not drawn) [Compound I-113] in this work. The IC50 [4] was no more than 50 nM, the IC50 [5] was no more than 50 nM and the IC50 [6] was no more than 50 nM.
An IC50 [1] of no more than 50 nM, an IC50 [2] of no more than 50 nM and an IC50 [3] of no more than 50 nM were found for `CCS(=O)(=O)N(C)c1c(Nc2nc(Nc3cc(C)c(N4CCC(N5CCN(C)CC5)CC4)cc3OC)ncc2Cl)ccc2nccnc12` [Compound I-114] in this work. It also gave an IC50 [4] of no more than 50 nM, an IC50 [5] of no more than 50 nM and an IC50 [6] of no more than 50 nM.
An IC50 [1] of no more than 50 nM, an IC50 [2] of no more than 50 nM and an IC50 [3] of no more than 50 nM were found for `CCc1cc(Nc2ncc(Cl)c(Nc3ccc4nccnc4c3N(C)S(=O)(=O)CC)n2)c(OC)cc1N1CCC(N2CCN(C)CC2)CC1` [Compound I-115] in this work. The IC50 [4] was no more than 50 nM, the IC50 [5] was no more than 50 nM and the IC50 [6] was no more than 50 nM.
An IC50 [1] of 50 to 500 nM, an IC50 [2] of 50 to 500 nM and an IC50 [3] of 50 to 500 nM were found for `CCc1cc(Nc2ncc(Cl)c(Nc3ccc4nccnc4c3N(C)S(=O)(=O)CC)n2)c(OC(F)(F)F)cc1N1CCC(N2CCN(C)CC2)CC1` [Compound I-116] in this work. The IC50 [4] was 50 to 500 nM, the IC50 [5] was no more than 50 nM and the IC50 [6] was 50 to 500 nM.
An IC50 [1] of no more than 50 nM, an IC50 [2] of no more than 50 nM and an IC50 [3] of no more than 50 nM were found for `CCc1cc(Nc2ncc(Cl)c(Nc3ccc4nccnc4c3N(C)S(=O)(=O)CC)n2)c(OC)cc1N1CCC(N(C)C)CC1` [Compound I-117] in this work. For the same compound, the IC50 [4] was no more than 50 nM, the IC50 [5] was no more than 50 nM and the IC50 [6] was no more than 50 nM.
An IC50 [1] of no more than 50 nM, an IC50 [2] of no more than 50 nM and an IC50 [3] of no more than 50 nM were found for `CCc1cc(Nc2ncc(Cl)c(Nc3ccc4nccnc4c3N(C)S(=O)(=O)CC)n2)c(OC)cc1N1CCC(N(C)C)C1` (stereo not drawn) [Compound I-118] in this work. The IC50 [4] was no more than 50 nM, the IC50 [5] was no more than 50 nM and the IC50 [6] was no more than 50 nM.
An IC50 [1] of no more than 50 nM, an IC50 [2] of no more than 50 nM and an IC50 [3] of no more than 50 nM were found for `CCc1cc(Nc2ncc(Cl)c(Nc3ccc4nccnc4c3N(C)S(=O)(=O)C3CC3)n2)c(OC)cc1N1CCC(N2CCN(C)CC2)CC1` [Compound I-120] in this work. It also gave an IC50 [4] of no more than 50 nM, an IC50 [5] of no more than 50 nM and an IC50 [6] of no more than 50 nM.
An IC50 [1] of 50 to 500 nM, an IC50 [2] of 50 to 500 nM and an IC50 [3] of 50 to 500 nM were found for `CCc1cc(Nc2ncc(Cl)c(Nc3ccc4nccnc4c3N(C)S(=O)(=O)C3CC3)n2)c(OC(F)(F)F)cc1N1CCC(N2CCN(C)CC2)CC1` [Compound I-121] in this work. For the same compound, the IC50 [4] was 50 to 500 nM, the IC50 [5] was 50 to 500 nM and the IC50 [6] was 50 to 500 nM.
An IC50 [1] of no more than 50 nM, an IC50 [2] of no more than 50 nM and an IC50 [3] of no more than 50 nM were found for `CCc1cc(Nc2ncc(Cl)c(Nc3ccc4nccnc4c3N(C)S(=O)(=O)C3CC3)n2)c(OC)cc1N1CCC(N(C)C)CC1` [Compound I-122] in this work. It also gave an IC50 [4] of no more than 50 nM, an IC50 [5] of no more than 50 nM and an IC50 [6] of no more than 50 nM.
An IC50 [1] of 50 to 500 nM, an IC50 [2] of 50 to 500 nM and an IC50 [3] of 50 to 500 nM were found for `CCc1cc(Nc2ncc(Cl)c(Nc3ccc4nccnc4c3N(C)S(=O)(=O)C3CC3)n2)c(OC)cc1N1CCC(N(C)C)C1` (stereo not drawn) [Compound I-123] in this work. The IC50 [4] was 50 to 500 nM, the IC50 [5] was no more than 50 nM and the IC50 [6] was no more than 50 nM.
An IC50 [1] of 500 to 2500 nM, an IC50 [2] of 50 to 500 nM and an IC50 [3] of 50 to 500 nM were found for `COc1cc(N2CCC(N3CCN(C)CC3)CC2)c(C)cc1Nc1ncc(Br)c(Nc2ccc3nccnc3c2N(C)S(=O)(=O)C(F)(F)F)n1` [Compound I-124] in this work. For the same compound, the IC50 [4] was 500 to 2500 nM, the IC50 [5] was no more than 50 nM and the IC50 [6] was 50 to 500 nM.
An IC50 [1] of 500 to 2500 nM, an IC50 [2] of 50 to 500 nM and an IC50 [3] of 50 to 500 nM were found for `CCc1cc(Nc2ncc(Br)c(Nc3ccc4nccnc4c3N(C)S(=O)(=O)C(F)(F)F)n2)c(OC)cc1N1CCC(N2CCN(C)CC2)CC1` [Compound I-125] in this work. The IC50 [4] was 50 to 500 nM, the IC50 [5] was no more than 50 nM and the IC50 [6] was 50 to 500 nM.
An IC50 [1] of 500 to 2500 nM, an IC50 [2] of 50 to 500 nM and an IC50 [3] of 50 to 500 nM were found for `CCc1cc(Nc2ncc(Br)c(Nc3ccc4nccnc4c3N(C)S(=O)(=O)C(F)(F)F)n2)c(OC(F)(F)F)cc1N1CCC(N2CCN(C)CC2)CC1` [Compound I-126] in this work. The IC50 [4] was 500 to 2500 nM, the IC50 [5] was 50 to 500 nM and the IC50 [6] was 500 to 2500 nM.
